According to ChEMBL document CHEMBL1201862, “PubChem BioAssay data set” (2004):
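These data come from cells grown in 96-well plates and exposed to compound for 48 hours at five concentrations. GI50 is the concentration that inhibits growth by half.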 Active and inactive are the calls of the source. Cut-off read from the data, not from the text of the source: active = GI50 up to about 1.1 µM and inactive = higher.

Legend:
Assay in all cases: growth of human tumour cells (NCI), 48 h
HOP-18 = tested on: HOP-18
DMS-273 = tested on: DMS-273
RXF 631 = tested on: RXF 631
XF498 = tested on: XF498
DLD-1 = tested on: DLD-1
LXFL 529 = tested on: LXFL 529
SNB-78 = tested on: SNB-78
M19-MEL = tested on: M19-MEL
BT-549 = tested on: BT-549

Measured: GI50

CN1CCc2c1nc(-c1cccnc1)c1c2N(C)CC1
inactive: HOP-18 60.4 µM | DMS-273 > 100 µM | RXF 631 > 100 µM | XF498 > 100 µM | DLD-1 > 100 µM | LXFL 529 > 100 µM | SNB-78 > 100 µM | M19-MEL > 100 µM

Cc1ccccc1C1=C(C(=O)Nc2ccc(Cl)c(Cl)c2)NC(=S)NC1N (configuration not stated)
inactive: HOP-18 > 100 µM | DMS-273 > 100 µM | RXF 631 > 100 µM | XF498 > 100 µM | DLD-1 > 100 µM | LXFL 529 > 100 µM | SNB-78 > 100 µM | M19-MEL > 100 µM

C/C=C1\CN2CCc3c([nH]c4ccccc34)C2CC1CCO (configuration not stated)
inactive: HOP-18 > 100 µM | DMS-273 > 100 µM | RXF 631 > 100 µM | XF498 > 100 µM | DLD-1 > 100 µM | LXFL 529 > 100 µM | SNB-78 > 100 µM | M19-MEL > 100 µM

O=c1c(Cc2ccccc2)c(O)cc2n1CCC2
inactive: HOP-18 > 100 µM | RXF 631 > 100 µM | XF498 > 100 µM | DLD-1 > 100 µM | LXFL 529 > 100 µM | SNB-78 > 100 µM | M19-MEL > 100 µM

N#CC(C#N)=Cc1ccc(CP(=O)(O)O)cc1
inactive: HOP-18 > 100 µM | DMS-273 > 100 µM | RXF 631 > 100 µM | XF498 > 100 µM | DLD-1 > 100 µM | LXFL 529 > 100 µM | SNB-78 > 100 µM | M19-MEL > 100 µM

Cc1ccc2nc3c(C)c(Cl)c(=O)cc-3sc2c1
inactive: HOP-18 19.7 µM | DMS-273 22.4 µM | RXF 631 24.3 µM | BT-549 20.9 µM | XF498 10 µM | DLD-1 19.2 µM | LXFL 529 4.94 µM | SNB-78 32.2 µM | M19-MEL 4.68 µM

O=C/C(=C(/Cl)c1ccc(O)cc1)c1ccccc1
inactive: HOP-18 20.2 µM | DMS-273 18.8 µM | RXF 631 24.8 µM | XF498 18.9 µM | DLD-1 23.5 µM | LXFL 529 25.4 µM | SNB-78 32.7 µM | M19-MEL 19.7 µM

Cc1ccccc1NC(=O)CC(=O)NNCC(=O)Nc1nnc(-c2ccccc2)s1
inactive: HOP-18 29 µM | DMS-273 73.6 µM | RXF 631 > 100 µM | XF498 31.9 µM | DLD-1 98.9 µM | LXFL 529 39.2 µM | SNB-78 > 100 µM | M19-MEL > 100 µM

CCOC(=O)C1=C(Nc2cccc3ccccc23)OC/C1=N\NC(=O)c1ccccc1O
inactive: HOP-18 11.1 µM | DMS-273 9.59 µM | RXF 631 21.2 µM | XF498 8.04 µM | DLD-1 17.6 µM | LXFL 529 20.3 µM | M19-MEL 19.1 µM

COc1ccccc1/C=C\c1cc(OC)c(OC)c(OC)c1
inactive: HOP-18 > 100 µM | DMS-273 4.62 µM | RXF 631 15.8 µM | XF498 9.64 µM | DLD-1 23.2 µM | LXFL 529 12.9 µM | SNB-78 28.3 µM | M19-MEL 9.1 µM

Cn1cnc([N+](=O)[O-])c1Sc1ccccn1
inactive: HOP-18 14.9 µM | DMS-273 > 100 µM | RXF 631 > 100 µM | XF498 36.3 µM | DLD-1 > 100 µM | LXFL 529 70.5 µM | SNB-78 > 100 µM | M19-MEL > 100 µM
